Legend:
Test in all cases: Pull-down assay with immobilized protein and LSM libraries
CaM = target: T1, CaM (Bos taurus, UniProt P62157); assay type: binding, bovine; conditions: H12 library; 1:2 stoichiometry assumed; read-out: Surface mapping KD (apparent)
T1 construct: made in house; host or cells: E. coli BL21 (DE3)
How it was run: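 CaM buffer was 20 mM HEPES pH 7.4, 150 mM NaCl, 5 mM CaCl2. LSM sublibrary members ([…]) incubated 30 min, RT, with equimolar His-tagged protein on Co-NTA resin. HPLC-MS measured unbound probes; bound fraction relative to resin-only background gave dissociation constants.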

Gal-1 = target: T2, Gal-1 (Homo sapiens, UniProt P09382); assay type: binding; conditions: H12 library; 1:1 binding assumed; read-out: Surface mapping KD (apparent)
T2 construct: made in house; host or cells: E. coli BL21(DE3)
T2 sequence (P09382 whole entry): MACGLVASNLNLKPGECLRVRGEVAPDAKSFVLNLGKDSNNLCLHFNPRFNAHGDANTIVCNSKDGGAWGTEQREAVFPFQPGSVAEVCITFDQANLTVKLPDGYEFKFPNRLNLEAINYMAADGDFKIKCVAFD
How it was run: (§1)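 Buffers were HEPES pH 7.4 with 150 mM NaCl, plus 1 mM TCEP and 1 mM CaCl2 (50 mM HEPES) for S100A4 and S100B, 1 mM TCEP for Gal-1, and no additive for RecQ-WH. Immobilized protein at 64 µM was equilibrated 30 min with the LSM sublibrary, and unbound probes were measured by LC-MS.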

S100A4 = target: T3, S100A4 (Homo sapiens, UniProt P26447); assay type: binding; conditions: H12 library; 1:1 binding assumed; read-out: Surface mapping KD (apparent)
T3 construct: made in house; host or cells: Escherichia coli BL21(DE3)
T3 sequence (P26447 whole entry): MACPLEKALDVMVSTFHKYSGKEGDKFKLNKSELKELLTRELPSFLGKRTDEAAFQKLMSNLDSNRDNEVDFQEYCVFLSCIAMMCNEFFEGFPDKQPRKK
How it was run: as §1

S100B = target: T4, S100B (Homo sapiens, UniProt P04271); assay type: binding; conditions: H12 library; 1:1 binding assumed; read-out: Surface mapping KD (apparent)
T4 construct: made in house; host or cells: Escherichia coli BL21(DE3)
T4 sequence (P04271 1-92): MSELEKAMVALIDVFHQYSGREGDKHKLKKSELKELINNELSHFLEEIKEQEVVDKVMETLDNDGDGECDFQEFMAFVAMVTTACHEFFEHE
How it was run: as §1

| Kd (CaM) [µM] | Kd (Gal-1) [µM] | Kd (S100A4) [µM] | Kd (S100B) [µM] | Compound |
| --- | --- | --- | --- | --- |
| 211 | 378 | 381 | 74 | CSCC[C@@H](CC(=O)N[C@H]1CCC[C@@H]1C(=O)N[C@H]1CCC[C@@H]1C(N)=O)NC(=O)[C@H]1CCC[C@@H]1NC(=O)[C@H]1CCC[C@@H]1NC(=O)C[C@H](CC(C)C)NC(=O)[C@H]1CCC[C@@H]1NC(=O)[C@H]1CCC[C@@H]1N [H12 LM] |
| 236 | 120 | 345 | 29 | CC(C)C[C@@H](CC(=O)N[C@H]1CCC[C@@H]1C(=O)N[C@H]1CCC[C@@H]1C(=O)N[C@@H](CCCNC(=N)N)CC(=O)N[C@H]1CCC[C@@H]1C(=O)N[C@H]1CCC[C@@H]1C(N)=O)NC(=O)[C@H]1CCC[C@@H]1NC(=O)[C@H]1CCC[C@@H]1N [H12 LR] |
| 19 | 368 | 28 | 11 | CC(C)C[C@@H](CC(=O)N[C@H]1CCC[C@@H]1C(=O)N[C@H]1CCC[C@@H]1C(=O)N[C@H](CC(=O)N[C@H]1CCC[C@@H]1C(=O)N[C@H]1CCC[C@@H]1C(N)=O)Cc1c[nH]c2ccccc12)NC(=O)[C@H]1CCC[C@@H]1NC(=O)[C@H]1CCC[C@@H]1N [H12 LW] |
| 28 | 347 | 100 | 56 | CC(C)C[C@@H](CC(=O)N[C@H]1CCC[C@@H]1C(=O)N[C@H]1CCC[C@@H]1C(=O)N[C@H](CC(=O)N[C@H]1CCC[C@@H]1C(=O)N[C@H]1CCC[C@@H]1C(N)=O)Cc1ccc(O)cc1)NC(=O)[C@H]1CCC[C@@H]1NC(=O)[C@H]1CCC[C@@H]1N [H12 LY] |
| 101 | 281 | 358 | 54 | CC[C@H](C)[C@@H](CC(=O)N[C@H]1CCC[C@@H]1C(=O)N[C@H]1CCC[C@@H]1C(N)=O)NC(=O)[C@H]1CCC[C@@H]1NC(=O)[C@H]1CCC[C@@H]1NC(=O)C[C@H](CCSC)NC(=O)[C@H]1CCC[C@@H]1NC(=O)[C@H]1CCC[C@@H]1N [H12 MI] |
| 96 | 202 | 140 | 40 | N=C(N)NCCC[C@@H](CC(=O)N[C@H]1CCC[C@@H]1C(=O)N[C@H]1CCC[C@@H]1C(=O)N[C@H](CC(=O)N[C@H]1CCC[C@@H]1C(=O)N[C@H]1CCC[C@@H]1C(N)=O)Cc1ccccc1)NC(=O)[C@H]1CCC[C@@H]1NC(=O)[C@H]1CCC[C@@H]1N [H12 RF] |
| 252 | 194 | 245 | 56 | CC[C@H](C)[C@@H](CC(=O)N[C@H]1CCC[C@@H]1C(=O)N[C@H]1CCC[C@@H]1C(N)=O)NC(=O)[C@H]1CCC[C@@H]1NC(=O)[C@H]1CCC[C@@H]1NC(=O)C[C@H](CCCNC(=N)N)NC(=O)[C@H]1CCC[C@@H]1NC(=O)[C@H]1CCC[C@@H]1N [H12 RI] |
| 252 | 194 | 245 | 56 | CC(C)C[C@@H](CC(=O)N[C@H]1CCC[C@@H]1C(=O)N[C@H]1CCC[C@@H]1C(N)=O)NC(=O)[C@H]1CCC[C@@H]1NC(=O)[C@H]1CCC[C@@H]1NC(=O)C[C@H](CCCNC(=N)N)NC(=O)[C@H]1CCC[C@@H]1NC(=O)[C@H]1CCC[C@@H]1N [H12 RL] |
| 464 | 201 | 335 | 96 | CSCC[C@@H](CC(=O)N[C@H]1CCC[C@@H]1C(=O)N[C@H]1CCC[C@@H]1C(N)=O)NC(=O)[C@H]1CCC[C@@H]1NC(=O)[C@H]1CCC[C@@H]1NC(=O)C[C@H](CCCNC(=N)N)NC(=O)[C@H]1CCC[C@@H]1NC(=O)[C@H]1CCC[C@@H]1N [H12 RM] |
| 123 | 181 | 210 | 89 | N=C(N)NCCC[C@@H](CC(=O)N[C@H]1CCC[C@@H]1C(=O)N[C@H]1CCC[C@@H]1C(N)=O)NC(=O)[C@H]1CCC[C@@H]1NC(=O)[C@H]1CCC[C@@H]1NC(=O)C[C@H](CCCNC(=N)N)NC(=O)[C@H]1CCC[C@@H]1NC(=O)[C@H]1CCC[C@@H]1N [H12 RR] |

From article PMC8162404, “Proteomimetic surface fragments distinguish targets by function” (Chemical Science, 2020)
